Laboratory results from BindingDB's records for doi:10.1021/ml100192b (2011).

Legend:
[1] = Inhibition of lactase in mouse intestinal input by glucose release assay
[2] = Inhibition of maltase in mouse intestinal input by glucose release assay

Structure (SMILES): CCCCCCCOCCCCCN1C[C@H](O)[C@@H](O)[C@H](O)[C@@H]1CO [N-Heptoxypentyl-L-ido-1-deoxynojirimycin]
- IC50 [1]: 250 µM
- IC50 [2]: > 1000 µM

Structure (SMILES): CCCCCCCOCCCCCN1C[C@H](O)[C@@H](O)[C@H](O)[C@H]1CO [N-Heptoxypentyl-1-deoxynojirimycin]
- IC50 [1]: 250 µM
- IC50 [2]: 7 µM
